Legend:
[1] = test system: IL-2 in activated CD4+ human T-cells; assay: IL-2 inhibition in supernatants from activated CD4+ human T-cells (cisbio HTRF); type: cell-based; conditions: T-cell; geometric mean of count n; CD3/CD28-expanded human CD4+ T cells stimulated with ImmunoCult, 20 to 24 hrs
Procedure: IL-2-Inhibition Activity, IC50 (uM)
IL-2 inhibition activity in supernatants from activated CD4+ human T-cells was determined by measuring the effect of a test compound on the activity using the cisbio HTRF™ technology.
Human CD4+ T cells were activated with CD3/CD28 for 3 days and expanded for an additional 4-6 days (7 to 9 days total). On day 0, frozen CD4+ T cells were thawed, treated with CD3/CD28 Dynabeads, and incubated at 37° C./5% CO2. On day 3, the beads were removed, and the cells were diluted to 5×10^5 cells/cm^2, placed in G-Rex10 flask, and incubated at 37° C./5% CO2. On day 7 to day 9 the cells were removed from the G-Rex flasks, counted and diluted back to 1×10^6 cells/ml in standard tissue culture flask.
The expanded CD4+ T-cells were centrifuged at 300×g for 10 minutes and resuspended to 0.5 million cells per ml (30,000 cells/well). 60 μl of CD4+ T cells were added per well to a 384 well plate containing 0.1 μL of varying concentrations of test compound in DMSO. The plates were incubated for 15 min at 37° C./5% CO2. 20 μl of diluted ImmunoCult™ ([…] Technologies, 1:12.5 in T cell assay media) were added to all wells of the plate (1:50 final assay concentration). The plates were incubated for an additional 20 to 24 hrs at 37° C./5% CO2. The plates were centrifuged at 300×g for 10 minutes. 16 μL of supernatant was removed and combined with 4 μl of IL-2 HTRF Abs. (cisbio kit). Plates were incubated for 3 hours at RT and read with an EnVision plate reader at 665 nm and 615 nm wavelengths.

[2] = target: Tropomyosin receptor kinase A (TRKA, NTRK1) (Homo sapiens (Human), UniProt P04629); assay: TRKA (NTRK1) enzyme Z'-LYTE assay; type: biochemical; conditions: arithmetic mean of count n; test compound 1 uM, ATP 1 mM
Tropomyosin receptor kinase A (TRKA, NTRK1), sequence (P04629 33-796): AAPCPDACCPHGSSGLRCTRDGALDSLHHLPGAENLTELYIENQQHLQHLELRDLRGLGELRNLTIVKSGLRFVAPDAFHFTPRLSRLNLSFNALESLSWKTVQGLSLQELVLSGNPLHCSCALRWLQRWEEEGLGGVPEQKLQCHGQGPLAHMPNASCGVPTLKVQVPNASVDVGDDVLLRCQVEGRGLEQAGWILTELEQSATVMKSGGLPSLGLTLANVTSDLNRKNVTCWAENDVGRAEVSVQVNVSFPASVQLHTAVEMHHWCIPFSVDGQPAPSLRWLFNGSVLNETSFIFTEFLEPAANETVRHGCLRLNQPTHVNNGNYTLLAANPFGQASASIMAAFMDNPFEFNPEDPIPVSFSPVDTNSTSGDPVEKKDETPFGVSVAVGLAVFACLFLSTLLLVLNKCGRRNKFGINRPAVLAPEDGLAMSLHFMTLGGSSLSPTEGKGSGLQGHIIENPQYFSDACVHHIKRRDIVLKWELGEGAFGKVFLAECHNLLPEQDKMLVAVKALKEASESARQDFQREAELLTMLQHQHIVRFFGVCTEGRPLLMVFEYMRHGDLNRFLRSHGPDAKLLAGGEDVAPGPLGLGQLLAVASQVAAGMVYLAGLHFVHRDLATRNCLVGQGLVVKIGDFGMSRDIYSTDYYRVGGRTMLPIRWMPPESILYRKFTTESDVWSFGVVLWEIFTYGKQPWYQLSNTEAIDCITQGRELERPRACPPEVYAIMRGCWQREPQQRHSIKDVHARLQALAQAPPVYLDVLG
Procedure: Tropomyosin Receptor Kinase a (TRKA) Activity, % Inhibition
TRKA, also known as neurotrophic tyrosine kinase receptor type 1 (NTKR1) activity was determined by measuring the effect of a test compound on the activity against the NTRK1 enzyme using the ThermoFisher Z'-LYTE Assay fluorescence-based coupled enzyme format (www.thermofisher.com/selectscreen). […] The resulting effect value for the tested compound was compared to the assay controls to determine the % inhibition (%).

Row | Compound | IC50 [1] [µM] | inhibition at 1 µM [2] [%]
1 | C[C@H](C(=O)N(C)c1ccc2[nH]c(-c3n[nH]c4c3C[C@@H]3C[C@]3(C)C4)nc2c1)C1CCOCC1 [Example 9, (S)—N-methyl-N-(2-((4aS,5aR)-5a-methyl-1,4,4a,5,5a,6-hexahydrocyclopropa[f]indazol-3-yl)-1H-benzo[d]imidazol-5-yl)-2-(tetrahydro-2H-pyran-4-yl)propanamide] | 0.099 | 
2 | CCc1cc2[nH]c(-c3n[nH]c4c3C[C@@H]3C[C@]3(C)C4)nc2cc1N(C)C(=O)[C@H](C)N1CCOCC1 [Example 18, (S)—N-(6-ethyl-2-((4aS,5aR)-5a-methyl-1,4,4a,5,5a,6-hexahydrocyclopropa[f]indazol-3-yl)-1H-benzo[d]imidazol-5-yl)-N-methyl-2-morpholinopropanamide] | 0.091 | 
3 | C[C@@H](C(=O)N(C)c1cc(F)c2[nH]c(-c3n[nH]c4c3C[C@@H]3C[C@]3(C)C4)nc2c1)N1CCOCC1=O [Example 22, (S)—N-(7-fluoro-2-((4aS,5aR)-5a-methyl-1,4,4a,5,5a,6-hexahydrocyclopropa[f]indazol-3-yl)-1H-benzo[d]imidazol-5-yl)-N-methyl-2-(3-oxomorpholino)propanamide] | 0.34 | 
4 | C[C@H](C(=O)N(C)c1cc(F)c2[nH]c(-c3n[nH]c4c3C[C@@H]3C[C@]3(C)C4)nc2c1)N1CCOCC1=O [Example 23, (R)—N-(7-fluoro-2-((4aS,5aR)-5a-methyl-1,4,4a,5,5a,6-hexahydrocyclopropa[f]indazol-3-yl)-1H-benzo[d]imidazol-5-yl)-N-methyl-2-(3-oxomorpholino)propanamide] | 0.304 | 
5 | Cc1cc2[nH]c(-c3n[nH]c4c3C[C@@H]3C[C@]3(C)C4)nc2cc1N(C)C(=O)CN1CCOC(CO)C1 (stereo partly drawn) [Example 27, 2-(2-(Hydroxymethyl)morpholino)-N-methyl-N-(6-methyl-2-((4aS,5aR)-5a-methyl-1,4,4a,5,5a,6-hexahydrocyclopropa[f]indazol-3-yl)-1H-benzo[d]imidazol-5-yl)acetamide] | 0.289 | 
6 | Cc1cc2[nH]c(-c3n[nH]c4c3C[C@@H]3C[C@]3(C)C4)nc2cc1N(C)C(=O)CN1CCO[C@@H](CO)C1 [Example 28, 2-((R)-2-(Hydroxymethyl)morpholino)-N-methyl-N-(6-methyl-2-((4aS,5aR)-5a-methyl-1,4,4a,5,5a,6-hexahydrocyclopropa[f]indazol-3-yl)-1H-benzo[d]imidazol-5-yl)acetamide] | 0.305 | 
7 | Cc1cc2[nH]c(-c3n[nH]c4c3C[C@@H]3C[C@]3(C)C4)nc2cc1N(C)C(=O)CN1CCOCC1=O [Example 36, N-Methyl-N-(6-methyl-2-((4aS,5aR)-5a-methyl-1,4,4a,5,5a,6-hexahydrocyclopropa[f]indazol-3-yl)-1H-benzo[d]imidazol-5-yl)-2-(3-oxomorpholino)acetamide] | 0.096 | 
8 | CN(C(=O)CC1CCOCC1)c1cc2nc(-c3n[nH]c4c3C[C@@H]3C[C@]3(C)C4)[nH]c2cc1C#N [Example 54, N-(6-cyano-2-((4aS,5aR)-5a-methyl-1,4,4a,5,5a,6-hexahydrocyclopropa[f]indazol-3-yl)-1H-benzo[d]imidazol-5-yl)-N-methyl-2-(tetrahydro-2H-pyran-4-yl)acetamide] | 4.57 | 

The next molecules have a lower IC50 [1] than those just listed; values first:

Row | IC50 [1] [µM] | inhibition at 1 µM [2] [%] | Compound
9 | 0.022 | 95 | Cc1cc2[nH]c(-c3n[nH]c4c3C[C@@H]3C[C@]3(C)C4)nc2cc1N(C)C(=O)[C@H](C)C1CCOCC1 [Example 4, (R)—N-methyl-N-(6-methyl-2-((4aS,5aR)-5a-methyl-1,4,4a,5,5a,6-hexahydrocyclopropa[f]indazol-3-yl)-1H-benzo[d]imidazol-5-yl)-2-(tetrahydro-2H-pyran-4-yl)propanamide]
10 | 0.027 |  | Cc1cc2[nH]c(-c3n[nH]c4c3C[C@@H]3C[C@]3(C)C4)nc2cc1N(C)C(=O)C(C)C1CCOCC1 (stereo partly drawn) [Example 5, N-methyl-N-(6-methyl-2-((4aS,5aR)-5a-methyl-1,4,4a,5,5a,6-hexahydrocyclopropa[f]indazol-3-yl)-1H-benzo[d]imidazol-5-yl)-2-(tetrahydro-2H-pyran-4-yl)propanamide]
11 | 0.013 |  | C[C@@H](C(=O)N(C)c1ccc2[nH]c(-c3n[nH]c4c3C[C@@H]3C[C@]3(C)C4)nc2c1)C1CCOCC1 [Example 7, (R)—N-methyl-N-(2-((4aS,5aR)-5a-methyl-1,4,4a,5,5a,6-hexahydrocyclopropa[f]indazol-3-yl)-1H-benzo[d]imidazol-5-yl)-2-(tetrahydro-2H-pyran-4-yl)propanamide]
12 | 0.026 |  | CC(C(=O)N(C)c1ccc2[nH]c(-c3n[nH]c4c3C[C@@H]3C[C@]3(C)C4)nc2c1)C1CCOCC1 (stereo partly drawn) [Example 8, N-methyl-N-(2-((4aS,5aR)-5a-methyl-1,4,4a,5,5a,6-hexahydrocyclopropa[f]indazol-3-yl)-1H-benzo[d]imidazol-5-yl)-2-(tetrahydro-2H-pyran-4-yl)propanamide]
13 | 0.034 |  | CN(C(=O)C(F)(F)C1CCOCC1)c1ccc2[nH]c(-c3n[nH]c4c3C[C@@H]3C[C@]3(C)C4)nc2c1 [Example 11, 2,2-difluoro-N-methyl-N-(2-((4aS,5aR)-5a-methyl-1,4,4a,5,5a,6-hexahydrocyclopropa[f]indazol-3-yl)-1H-benzo[d]imidazol-5-yl)-2-(tetrahydro-2H-pyran-4-yl)acetamide]
14 | 0.045 |  | C[C@@H](C(=O)N(C)c1cc2nc(-c3n[nH]c4c3C[C@@H]3C[C@]3(C)C4)[nH]c2cc1F)N1CCOCC1 [Example 17, (S)—N-(6-fluoro-2-((4aS,5aR)-5a-methyl-1,4,4a,5,5a,6-hexahydrocyclopropa[f]indazol-3-yl)-1H-benzo[d]imidazol-5-yl)-N-methyl-2-morpholinopropanamide]
15 | 0.058 |  | Cc1cc2[nH]c(-c3n[nH]c4c3C[C@@H]3C[C@]3(C)C4)nc2cc1N(C)C(=O)CN1CCOC(C)(C)C1 [Example 29, 2-(2,2-Dimethylmorpholino)-N-methyl-N-(6-methyl-2-((4aS,5aR)-5a-methyl-1,4,4a,5,5a,6-hexahydrocyclopropa[f]indazol-3-yl)-1H-benzo[d]imidazol-5-yl)acetamide]
16 | 0.082 |  | Cc1cc2[nH]c(-c3n[nH]c4c3C[C@@H]3C[C@]3(C)C4)nc2cc1N(C)C(=O)CN1CCO[C@H](C)C1 [Example 30, N-Methyl-N-(6-methyl-2-((4aS,5aR)-5a-methyl-1,4,4a,5,5a,6-hexahydrocyclopropa[f]indazol-3-yl)-1H-benzo[d]imidazol-5-yl)-2-((R)-2-methylmorpholino)acetamide]
17 | 0.068 |  | Cc1cc2[nH]c(-c3n[nH]c4c3C[C@@H]3C[C@]3(C)C4)nc2cc1N(C)C(=O)CN1C[C@H](C)O[C@@H](C)C1 [Example 33, 2-((2S,6S)-2,6-Dimethylmorpholino)-N-methyl-N-(6-methyl-2-((4aS,5aR)-5a-methyl-1,4,4a,5,5a,6-hexahydrocyclopropa[f]indazol-3-yl)-1H-benzo[d]imidazol-5-yl)acetamide]
18 | 0.05 |  | Cc1cc2[nH]c(-c3n[nH]c4c3C[C@@H]3C[C@]3(C)C4)nc2cc1N(C)C(=O)CC1CCOCC1 [Example 35, N-Methyl-N-(6-methyl-2-((4aS,5aR)-5a-methyl-1,4,4a,5,5a,6-hexahydrocyclopropa[f]indazol-3-yl)-1H-benzo[d]imidazol-5-yl)-2-(tetrahydro-2H-pyran-4-yl)acetamide]
19 | 0.082 |  | C[C@@H](C(=O)N(C)c1cc(O)c2[nH]c(-c3n[nH]c4c3C[C@@H]3C[C@]3(C)C4)nc2c1)N1CCOCC1 [Example 39, (S)—N-(7-hydroxy-2-((4aS,5aR)-5a-methyl-1,4,4a,5,5a,6-hexahydrocyclopropa[f]indazol-3-yl)-1H-benzo[d]imidazol-5-yl)-N-methyl-2-morpholinopropanamide]
20 | 0.047 |  | Cc1c(N(C)C(=O)[C@H](C)N2CCOCC2)cc2nc(-c3n[nH]c4c3C[C@@H]3C[C@]3(C)C4)[nH]c2c1F [Example 46, (S)—N-(7-fluoro-6-methyl-2-((4aS,5aR)-5a-methyl-1,4,4a,5,5a,6-hexahydrocyclopropa[f]indazol-3-yl)-1H-benzo[d]imidazol-5-yl)-N-methyl-2-morpholinopropanamide]
21 | 0.01 |  | Cc1cc2[nH]c(-c3n[nH]c4c3C[C@@H]3C(F)(F)[C@]3(C)C4)nc2cc1N(C)C(=O)[C@H](C)N1CCOCC1 [Example 53, (S)—N-(2-((4aS,5aR)-5,5-difluoro-5a-methyl-1,4,4a,5,5a,6-hexahydrocyclopropa[f]indazol-3-yl)-5-methyl-1H-benzo[d]imidazol-6-yl)-N-methyl-2-morpholinopropanamide]
